Source: US10799597B2, “Subcutaneous administration of antibody-drug conjugates for cancer therapy” (Immunomedics, Inc., priority 2017, dated 2020)

Legend:
[1] = test system: MDA-MB-468; experiment: MTS cytotoxicity assay, MDA-MB-468; assay type: cell-based, human; details: Example 5, 96 h
[2] = test system: Calu-3; experiment: Signaling events (p21Waf1/Cip1, p53) in Calu-3 cells; assay type: cell-based, human
From the text: (§1) SN-38 is known to activate several signaling pathways in cells, leading to apoptosis (e.g., Cusack et al., 2001, Cancer Res 61:3535-40; Liu et al. 2009, Cancer Lett 274:47-53; Lagadec et al., 2008, Br J Cancer 98:335-44). Our initial studies examined the expression of 2 proteins involved in early signaling events (p21^Waf1/Cip1 and p53) and 1 late apoptotic event [cleavage of poly-ADP-ribose polymerase (PARP)] in vitro (not shown).

[3] = test system: BxPC-3; experiment: Signaling events (p21Waf1/Cip1, p53) in BxPC-3 cells; assay type: cell-based, human
From the text: as §1

[4] = test system: SK-MES-1 human squamous cell lung tumors; experiment: Therapy of SK-MES-1 tumor xenografts in nude mice; details: hA20 ADC equal dose; irinotecan at MTD (q2dx5)
[5] = test system: COLO 205 colonic adenocarcinoma xenografts
[6] = test system: LS174T human colon carcinoma xenografts; experiment: IMMU-130 therapy of s.c. LS174T xenografts in nude mice; assay type: in vivo, athymic nude mice; details: s.c. model
Procedure: (§2) Experiments were conducted in female athymic nude mice, 4 weeks or older, bearing s.c. LS174T human colon carcinoma xenografts of (˜0.2 cm^3 size), or 2 weeks after lung metastases were generated by i.v. injection of GW-39 human colon carcinoma cells. Untreated controls, including a non-targeting ADC, were included. […] Tolerability studies were conducted in white New Zealand rabbits.

[7] = Tolerability study of IMMU-130 in rabbits; assay type: in vivo, white New Zealand rabbits; details: given as two doses
Procedure: as §2

[8] = test system: metastatic colonic cancer; experiment: IMMU-130 in a patient with advanced colon cancer (Example 13); assay type: in vivo, human
From the text: The patient is a person with a history of stage-IV metastatic colonic cancer, first diagnosed in 2008 and given a colectomy and partial hepatectomy for the primary and metastatic colonic cancers, respectively. […] In 2009, they received radiofrequency ablation therapy to their liver metastasis while under chemo-immunotherapy, and in late 2010 they underwent a wedge resection of their lung metastases, which was repeated a few months later, in early 2011. Despite having chemo-immunotherapy in 2011, new lung metastases appeared at the end of 2011, and in 2012, both lung and liver metastases were visualized. Their baseline plasma carcinoembryonic antigen (CEA) titer was 12.5 ng/mL just before undergoing the antibody-drug therapy with IMMU-130. The index lesions chosen by the radiologist for measuring tumor size change by computed tomography were the mid-lobe of the right lung and the liver metastases, both totaling 91 mm as the sum of their longest diameters at the baseline prior to IMMU-130 (anti-CEACAM5-SN-38) therapy.
This patient received doses of 10 mg/kg of IMMU-130 by slow IV infusion every other week for a total of 17 treatment doses. The patient tolerated the therapy well, having only a grade 1 nausea, diarrhea and fatigue after the first treatment, which occurred after treatments 4 and 5, but not therafter, because they received medication for these side-effects. After treatment 3, they did show alopecia (grade 2), which was present during the subsequent therapy. The nausea, diarrhea, and occasional vomiting lasted only 2-3 days, and their fatigue after the first infusion lasted 2 weeks. Otherwise, the patient tolerated the therapy well.

[9] = test system: GW-39 human colon carcinoma lung metastases; experiment: IMMU-130 therapy of GW-39 lung metastases in nude mice; assay type: in vivo, athymic nude mice
Procedure: as §2

[10] = test system: metastatic colon cancer; experiment: Subcutaneous IMMU-130 in a patient with metastatic colon cancer (Example 11); assay type: in vivo, human; details: s.c. 4 mg/kg 3 times weekly for 2 weeks, 3 cycles; CT 8 weeks from treatment begin
Procedure: A person with metastatic colon cancer (3-5 cm diameters) to their left and right liver lobes, as well as a 5 cm metastasis to their right lung, and an elevated blood CEA value of 130 ng/mL, is treated with the anti-CEACAM-5 ADC IMMU-130 (hMN-14-CL2A-SN-38) administered subcutaneously at a dosage of 4 mg/kg, given 3 times weekly for 2 weeks, followed by rest, with 3 cycles of drug administration. […] Repeated courses of therapy continue as their neutropenia normalizes.

[11] = test system: gastric adenocarcinoma metastases; experiment: I.V. and S.C. IMMU-130 in a gastric cancer patient (Example 15); assay type: in vivo, human
From the text: Their fourth infusion is postponed by one week, and then the weekly infusions are reinstituted, with no evidence of diarrhea or neutropenia for the next 4 injection. The patient then undergoes a CT study to measure their metastatic tumor sizes and to view the original area of gastric resection. The radiologist measures, according to RECIST criteria, a decrease of the sum of the metastatic lesions, compared to baseline prior to IMMU-130 therapy, of 23%. […] The patient's general condition improves and they resume their usual activities while continuing to receive a maintenance therapy of 3 mg/kg administered twice-weekly subcutaneously of IMMU-130 every six weeks for another 4 courses of therapy. At the last measurement of blood CEA, the value is 4.8 ng/mL, which is within the normal range for a smoker, which is the case for this patient.

[12] = test system: metastatic colon cancer; experiment: S.C. hMN-14-SN-38 ADC in advanced metastatic colon cancer (Example 16); assay type: in vivo, human; details: 2 mg/kg S.C. twice-weekly every other week, 3-month CT evaluation
Procedure: The hMN-14-SN-38 ADC is administered at a dosage of 2 mg/kg S.C., twice-weekly, which is repeated every other week for 4 months.

[13] = Drug release from the linker in IMMU-130
[14] = test system: Calu-3 non-small cell lung carcinoma xenografts; experiment: Therapy of Calu-3 tumor xenografts in nude mice; assay type: in vivo, athymic nude mice; details: 0.4 mg/kg SN-38 q4dx4
Procedure: FIG. 4A. […] Mice bearing Calu-3 tumors (N=5-7) were injected with hRS7-CL2-SN-38 every 4 days for a total of 4 injections (q4dx4).

[15] = FIG. 3A
Procedure: Table printed on a drawing sheet, FIG. 3A
Footnotes: CL2-SN-38: AA = Phe / CL2A-SN-38: AA = None
The patent's description of the figure: FIG. 3A. Structures of CL2-SN-38 and CL2A-SN-38.
FIG. 3C. […] Capan-1 mice (N=10) were treated with 0.2 mg/kg ADC and tumors measured weekly.

[16] = test system: Capan-1 pancreatic adenocarcinoma xenografts; experiment: Therapy of Capan-1 tumor xenografts in nude mice; assay type: in vivo, athymic nude mice; details: 0.2 mg/kg SN-38 twice weekly×4 weeks
Procedure: FIG. 3C. […] Animals were treated twice weekly for 4 weeks as indicated by the arrows. Capan-1 mice (N=10) were treated with 0.2 mg/kg ADC and tumors measured weekly.
FIG. 4C. […] Capan-1 (N=10) were treated twice weekly for 4 weeks with the agents indicated.

[17] = test system: diverse metastatic cancers; experiment: Phase I/II clinical trial of IMMU-132 (Example 9): best response and TTP
[18] = Tolerability in Cynomolgus monkeys; assay type: in vivo, Cynomolgus monkeys (Macaca fascicularis)
Procedure: FIG. 5C. Tolerability of hRS7-CL2A-SN-38 in Cynomolgus monkeys. […] All animals were bled on day −1, 3, and 6. Four monkeys were bled on day 11 in the 0.96 mg/kg group, 3 in the 1.92 mg/kg group. Changes in neutrophil counts in Cynomolgus monkeys.
FIG. 5D. Tolerability of hRS7-CL2A-SN-38 in Cynomolgus monkeys. […] All animals were bled on day −1, 3, and 6. Four monkeys were bled on day 11 in the 0.96 mg/kg group, 3 in the 1.92 mg/kg group. Changes in platelet counts in Cynomolgus monkeys.

[19] = Body weight loss in the murine therapy studies; assay type: in vivo, mice; details: all murine studies
[20] = Pharmacokinetics of MAb vs. ADC (IMMU-130) in mice; assay type: in vivo
Procedure: as §2

[21] = esophageal cancer, 4 assessable patients

CCc1c2c(nc3ccc(O)cc13)-c1cc3c(c(=O)n1C2)COC(=O)[C@]3(O)CC [SN-38, reference compound]
IC50 [1]: 1.54 nM | time of p53 upregulation [2]: 48 h | time of p53 upregulation [3]: 48 h

CCc1c2c(nc3ccc(OC(=O)N4CCC(N5CCCCC5)CC4)cc13)-c1cc3c(c(=O)n1C2)COC(=O)[C@]3(O)CC [irinotecan, reference compound]
antitumor effect relative to the specific conjugate [4]: provided the same antitumor effects as the specific hRS7-SN-38 conjugate | effectiveness of the MTD of irinotecan ([5]; 24 mg SN-38/kg, q2dx5): as effective as hRS7-CL2-SN-38

CC(=O)O[C@H]1C(=O)[C@@]2(C)[C@H]([C@H](OC(=O)c3ccccc3)[C@]3(O)C[C@H](OC(=O)[C@H](O)[C@@H](NC(=O)c4ccccc4)c4ccccc4)C(C)=C1C3(C)C)[C@]1(OC(C)=O)CO[C@@H]1C[C@@H]2O [paclitaxel]
IC50 ([1]; Homo sapiens, MDA-MB-468): < 0.061 nM

IMMU-130: CEACAM5-targeted ADC, labetuzumab-SN-38, substituted at 7-8 moles/mole of IgG
efficacy vs. the conjugate with an ultrastable linker ([6]; n=5): superior | efficacy of combination with bevacizumab ([6]; n=8-10, P<0.031): improved efficacy | efficacy vs. an MTD of 5 FU/leucovorin chemotherapy ([6]; n=10, P<0.0001): better | NOAEL, human equivalent dose [7]: 40 to 60 mg/kg | grade of nausea, diarrhea and fatigue ([8]; 10 mg/kg IV): 1 | change in index lesions from baseline (CT) ([8]; 10 mg/kg IV every other week, after 4 treatments): 28.6% | reduction in index lesions from baseline (CT) ([8]; after 8 treatments): 40.6% | anti-labetuzumab antibody in blood ([8]; after 16 doses): none was detected | plasma CEA titer ([8]; after the third therapy dose, baseline 12.6 ng/mL): 2.1 ng/mL | grade of alopecia ([8]; after treatment 3): 2 | index lesions less than baseline (CT) ([8]; another 2 months later): 31.9% | effect of pre-dosing with labetuzumab on median survival ([9]; pre-dose up to twice the ADC dose, n=10): did not affect median survival | median survival vs. untreated mice ([9]; total 50 mg/kg ADC, 2 cycles of 21 days, twice-weekly×2 weeks and once weekly×2 weeks schedules): doubled median survival | reduction of the total mean diameters of the 3 target lesions [10]: 25% | decrease of the sum of the metastatic lesions (RECIST) ([11]; 8 mg/kg I.V. weekly, first CT study): 23% | grade of diarrhea ([11]; after 3 weeks of 8 mg/kg I.V.): 1 | grade of neutropenia ([11]; after 3 weeks of 8 mg/kg I.V.): 2 | decrease of the sum of all metastatic lesions ([11]; after a total of 13 infusions of 8.0 mg/kg I.V.): 41% | CEA titer ([11]; at first CT study, baseline 14.5 ng/mL): 7.2 ng/mL | blood CEA ([11]; last measurement, s.c. maintenance 3 mg/kg twice-weekly): 4.8 ng/mL | response by RECIST criteria [12]: partial response | time for liberating 50% of drug [13]: ~20 h

hLL2-CL2-SN-38 [reference compound]
tumor outcome [14]: tumors regrew

hRS7 IgG
time of p53 upregulation [2]: 48 h | time of p53 upregulation [3]: 48 h

hRS7-CL2-SN-38 [listing 1 of 2 here]
HUMAN SERUM HALF-LIFE [15]: 22.1 h

hRS7-CL2-SN-38 [listing 2 of 2 here]
time by which all mice were cured [14]: ≤ 28 days | tumor outcome [14]: remained tumor-free until the end of the study on day 147 | tumor growth vs. saline and hA20-CL2A-SN-38 [16]: significantly inhibited tumor growth | mice tumor-free at the end of the study ([16]; day 140): 40% | tumor growth vs. saline and hA20-CL2A-SN-38 ([5]; 0.4 mg/kg SN-38 twice weekly×4 weeks): significantly inhibited tumor growth

hRS7-CL2A-SN-38
HUMAN SERUM HALF-LIFE [15]: 20.3 h

hRS7-SN-38
reduction in target lesions ([17]; CRC patient, 8 mg/kg, first CT assessment): 37% | maximum reduction in target lesions ([17]; CRC patient, after 10 months of treatment): 65% | Best Response: PD, number of patients ([17]; CRC, 18 assessable patients): 6 | Best Response: PR, number of patients ([17]; CRC, 18 assessable patients): 1 | Best Response: SD, number of patients ([17]; CRC, 18 assessable patients): 11 | Best Response: PD, number of patients ([17]; NSCLC, 5 assessable patients): 1 | Best Response: PR, number of patients ([17]; NSCLC, 5 assessable patients): 1 | Best Response: SD, number of patients ([17]; NSCLC, 5 assessable patients): 3 | Best Response: PD, number of patients ([17]; SCLC, 4 assessable patients): 2 | Best Response: PR, number of patients ([17]; SCLC, 4 assessable patients): 2 | Best Response: SD, number of patients ([17]; SCLC, 4 assessable patients): 0 | Best Response: PD, number of patients ([17]; TNBC, 8 assessable patients): 2 | Best Response: PR, number of patients ([17]; TNBC, 8 assessable patients): 2 | Best Response: SD, number of patients ([17]; TNBC, 8 assessable patients): 4 | Best Response: PD, number of patients ([17]; all patients, 48 assessable): 14 | Best Response: PR, number of patients ([17]; all patients, 48 assessable): 7 | Best Response: SD, number of patients ([17]; all patients, 48 assessable): 27 | Best Response: PD, number of patients [17, 21]: 1 | Best Response: PR, number of patients [17, 21]: 1 | Best Response: SD, number of patients [17, 21]: 2 | tolerated cumulative human equivalent dose ([18]; cynomolgus monkey, in vivo): 22 mg/m^2 | tolerated dose ([18]; mild and reversible toxicity): 0.96 mg/kg/dose | extrapolated human dose ([18]; per dose): ~11 mg/m^2 | tolerability in terms of body weight loss [19]: well tolerated

labetuzumab
half-life longer for MAb vs. ADC [20]: ~25%
